Results: patent US9718774B2, “Indole carboxamide derivatives as P2X7 receptor antagonist” (ACTELION PHARMACEUTICALS LTD, priority 2012, dated 2017)
Structures can show the parent of a compound that is named as a salt.

target: T1, human recombinant P2X7 receptor (Homo sapiens, UniProt Q99572); assay: YO-PRO assay: P2X7 receptor antagonistic activity in HEK cells stably expressing P2X7; type: cell-based; details: IC50, antagonistic activity with respect to the P2X7 receptor
T1 construct: expressed in transfected cells
T1 sequence (Q99572 1-595): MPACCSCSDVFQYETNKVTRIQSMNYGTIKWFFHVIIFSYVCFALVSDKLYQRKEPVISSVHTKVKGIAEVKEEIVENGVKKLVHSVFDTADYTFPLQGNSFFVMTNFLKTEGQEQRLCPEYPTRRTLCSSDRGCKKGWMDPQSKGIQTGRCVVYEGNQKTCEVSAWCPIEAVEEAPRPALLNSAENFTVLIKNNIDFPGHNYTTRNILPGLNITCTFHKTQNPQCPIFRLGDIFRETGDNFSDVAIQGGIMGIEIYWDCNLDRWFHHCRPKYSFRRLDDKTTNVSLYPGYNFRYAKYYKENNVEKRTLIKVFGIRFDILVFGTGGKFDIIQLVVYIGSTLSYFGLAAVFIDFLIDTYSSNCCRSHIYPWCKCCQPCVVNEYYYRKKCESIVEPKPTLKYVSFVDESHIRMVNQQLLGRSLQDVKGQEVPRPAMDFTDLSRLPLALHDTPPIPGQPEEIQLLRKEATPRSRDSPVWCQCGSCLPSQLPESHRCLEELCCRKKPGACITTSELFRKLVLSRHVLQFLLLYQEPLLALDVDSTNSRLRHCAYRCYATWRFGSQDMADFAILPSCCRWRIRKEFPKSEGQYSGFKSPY
Summary of the method: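 HEK cells stably transfected with human P2X7 (cloned from blood cDNA) were loaded with 0.5 μM YO-PRO-1. They were exposed to antagonist (10 concentrations, top 10 μM, 1/3 steps, duplicate) together with 250 μM ATP for 90 min, and dye uptake was read by FLIPR at ex 485/em 530. IC50 from maximum fluorescence versus concentration.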

IC50 [nM]	SMILES
28	Cc1ncc(C(CNC(=O)c2ccc3[nH]ccc3c2Cl)N2CC3CC(C2)O3)cn1 (stereo not shown) [Example 95, 4-Chloro-1H-indole-5-carboxylic acid [2-(2-methyl-pyrimidin-5-yl)-2-(6-oxa-3-aza-bicyclo[3.1.1]hept-3-yl)-ethyl]-amide]

same assay, conditions: antagonistic activity with respect to the P2X7 receptor, read-out: IC50

IC50 [nM]	SMILES
161	O=C(NCC(c1ccccc1F)N1CCOCC1)c1ccc2[nH]ccc2c1Cl (racemic) [Example 35, rac-4-Chloro-1H-indole-5-carboxylic acid [2-(2-fluoro-phenyl)-2-morpholin-4-yl-ethyl]-amide]
34	Cc1ncc(C(CNC(=O)c2ccc3[nH]ccc3c2Cl)N2CCC(F)(F)C2)cn1 (racemic) [Example 82, rac-4-Chloro-1H-indole-5-carboxylic acid [2-(3,3-difluoro-pyrrolidin-1-yl)-2-(2-methyl-pyrimidin-5-yl)-ethyl]-amide]
301	O=C(NCC(c1c(F)cc(F)cc1F)N1CCOCC1)c1ccc2[nH]ccc2c1Cl (racemic) [Example 33, rac-4-Chloro-1H-indole-5-carboxylic acid [2-morpholin-4-yl-2-(2,4,6-trifluoro-phenyl)-ethyl]-amide]
1300	O=C(NCC(c1c(F)cc(F)cc1F)N1CCCCC1)c1ccc2[nH]ccc2c1Cl (racemic) [Example 30, rac-4-Chloro-1H-indole-5-carboxylic acid [2-piperidin-1-yl-2-(2,4,6-trifluoro-phenyl)-ethyl]-amide]
91	Cc1ncc(C(CNC(=O)c2ccc3[nH]ccc3c2Cl)OC2CCOCC2)cn1 (racemic) [Example 70, rac-4-Chloro-1H-indole-5-carboxylic acid [2-(2-methyl-pyrimidin-5-yl)-2-(tetrahydro-pyran-4-yloxy)-ethyl]-amide]
1620	O=C(NCC(c1cccnn1)N1CCOCC1)c1ccc2[nH]ccc2c1Cl (racemic) [Example 90, rac-4-Chloro-1H-indole-5-carboxylic acid (2-morpholin-4-yl-2-pyridazin-3-yl-ethyl)-amide]
54	Cc1ccc(C(CNC(=O)c2ccc3[nH]ccc3c2Cl)N2CCOCC2)cc1 (racemic) [Example 47, rac-4-Chloro-1H-indole-5-carboxylic acid (2-morpholin-4-yl-2-p-tolyl-ethyl)-amide]
21	Cc1ncc(C(CNC(=O)c2cc(OCCO)c3[nH]ccc3c2Cl)N2CCOCC2)cn1 (racemic) [Example 113, rac-4-Chloro-7-(2-hydroxy-ethoxy)-1H-indole-5-carboxylic acid [2-(2-methyl-pyrimidin-5-yl)-2-morpholin-4-yl-ethyl]-amide]
889	O=C(NCC(c1ccc(C(F)(F)F)cc1)N1CCCCC1)c1ccc2[nH]ccc2c1Cl (racemic) [Example 44, rac-4-Chloro-1H-indole-5-carboxylic acid [2-piperidin-1-yl-2-(4-trifluoromethyl-phenyl)-ethyl]-amide]
102	O=C(NCC(c1ccc(Oc2ccccc2)cc1)N1CCOCC1)c1ccc2[nH]ccc2c1Cl (racemic) [Example 58, rac-4-Chloro-1H-indole-5-carboxylic acid [2-morpholin-4-yl-2-(4-phenoxy-phenyl)-ethyl]-amide]
12	Cc1ncc(C(CNC(=O)c2ccc3[nH]ccc3c2Cl)N2CCC(F)CC2)cn1 (racemic) [Example 78, rac-4-Chloro-1H-indole-5-carboxylic acid [2-(4-fluoro-piperidin-1-yl)-2-(2-methyl-pyrimidin-5-yl)-ethyl]-amide]
22	CCC(CC)OC(CNC(=O)c1ccc2[nH]ccc2c1Cl)c1cnc(C)nc1 (racemic) [Example 71, rac-4-Chloro-1H-indole-5-carboxylic acid [2-(1-ethyl-propoxy)-2-(2-methyl-pyrimidin-5-yl)-ethyl]-amide]
134	O=C(NCC(c1ccc(OC(F)(F)F)cc1)N1CCOCC1)c1ccc2[nH]ccc2c1Cl (racemic) [Example 48, rac-4-Chloro-1H-indole-5-carboxylic acid [2-morpholin-4-yl-2-(4-trifluoromethoxy-phenyl)-ethyl]-amide]
286	Cc1ncc(C(CNC(=O)c2ccc3[nH]ccc3c2Cl)N2CCCC2)cn1 (racemic) [Example 14, rac-4-Chloro-1H-indole-5-carboxylic acid [2-(2-methyl-pyrimidin-5-yl)-2-pyrrolidin-1-yl-ethyl]-amide]
56	CS(=O)(=O)N1CCC(C(CNC(=O)c2ccc3[nH]ccc3c2Cl)c2cccnc2)CC1 (racemic) [Example 23, rac-4-Chloro-1H-indole-5-carboxylic acid [2-(1-methanesulfonyl-piperidin-4-yl)-2-pyridin-3-yl-ethyl]-amide]
3.9	O=C(NCC(c1cnc(C(F)(F)F)nc1)N1CCOCC1)c1ccc2[nH]ccc2c1Cl (racemic) [Example 1, rac-4-Chloro-1H-indole-5-carboxylic acid [2-morpholin-4-yl-2-(2-trifluoromethyl-pyrimidin-5-yl)-ethyl]-amide]
2300	Cc1ncc(C(CNC(=O)c2ccc3[nH]ccc3c2Cl)N(C)C)cn1 (racemic) [Example 12, rac-4-Chloro-1H-indole-5-carboxylic acid [2-dimethylamino-2-(2-methyl-pyrimidin-5-yl)-ethyl]-amide]
35	Cc1ncc(C(CNC(=O)c2cc(C)c3[nH]ccc3c2C)N2CCOCC2)cn1 (racemic) [Example 104, rac-4,7-Dimethyl-1H-indole-5-carboxylic acid [2-(2-methyl-pyrimidin-5-yl)-2-morpholin-4-yl-ethyl]-amide]
32	CC(C)CC(CNC(=O)c1ccc2[nH]ccc2c1Cl)c1ccc(Cl)nc1 (racemic) [Example 66, rac-4-Chloro-1H-indole-5-carboxylic acid [2-(6-chloro-pyridin-3-yl)-4-methyl-pentyl]-amide]
83	O=C(NCC(c1ccc(F)c(F)c1)N1CCCCC1)c1ccc2[nH]ccc2c1Cl (racemic) [Example 45, rac-4-Chloro-1H-indole-5-carboxylic acid [2-(3,4-difluoro-phenyl)-2-piperidin-1-yl-ethyl]-amide]
61	Cc1ncc(C(CNC(=O)c2ccc3[nH]ccc3c2Cl)OC2CCCCC2)cn1 (racemic) [Example 69, rac-4-Chloro-1H-indole-5-carboxylic acid [2-cyclohexyloxy-2-(2-methyl-pyrimidin-5-yl)-ethyl]-amide]
48	O=C(NCC(c1cncs1)N1CCCCC1)c1ccc2[nH]ccc2c1Cl (racemic) [Example 62, rac-4-Chloro-1H-indole-5-carboxylic acid (2-piperidin-1-yl-2-thiazol-5-yl-ethyl)-amide]
251	O=C(NCC(c1ccc(F)cc1F)N1CCCCC1)c1ccc2[nH]ccc2c1Cl (racemic) [Example 31, rac-4-Chloro-1H-indole-5-carboxylic acid [2-(2,4-difluoro-phenyl)-2-piperidin-1-yl-ethyl]-amide]
232	O=C(NCC(c1ccc(F)cn1)N1CCCCC1)c1ccc2[nH]ccc2c1Cl (racemic) [Example 32, rac-4-Chloro-1H-indole-5-carboxylic acid [2-(5-fluoro-pyridin-2-yl)-2-piperidin-1-yl-ethyl]-amide]
447	O=C(NCC(c1cccnc1)C1CCNCC1)c1ccc2[nH]ccc2c1Cl (racemic) [Example 20, rac-4-Chloro-1H-indole-5-carboxylic acid (2-piperidin-4-yl-2-pyridin-3-yl-ethyl)-amide dihydrochloride]
35	CC(C)(C)OC(=O)N1CCC(C(CNC(=O)c2ccc3[nH]ccc3c2Cl)c2cccnc2)CC1 (racemic) [Example 19, rac-4-{2-[(4-Chloro-1H-indole-5-carbonyl)-amino]-1-pyridin-3-yl-ethyl}-piperidine-1-carboxylic acid tent-butyl ester]
126	CC(=O)N1CCC(C(CNC(=O)c2ccc3[nH]ccc3c2Cl)c2cccnc2)CC1 (racemic) [Example 22, rac-4-Chloro-1H-indole-5-carboxylic acid [2-(1-acetyl-piperidin-4-yl)-2-pyridin-3-yl-ethyl]-amide]
2060	Cc1ncc(C(CNC(=O)c2ccc3[nH]ccc3c2Cl)N2CC3CC2CO3)cn1 (stereo not shown) [Example 68, 4-Chloro-1H-indole-5-carboxylic acid [2-(2-methyl-pyrimidin-5-yl)-2-(2-oxa-5-aza-bicyclo[2.2.1]hept-5-yl)-ethyl]-amide]
187	O=C(NCC(c1ccc(Oc2ccccc2)cc1)N1CCCCC1)c1ccc2[nH]ccc2c1Cl (racemic) [Example 57, rac-4-Chloro-1H-indole-5-carboxylic acid [2-(4-phenoxy-phenyl)-2-piperidin-1-yl-ethyl]-amide]
25	COc1cc(C(=O)NCC(c2cnc(C)nc2)N2CCOCC2)c(C)c2cc[nH]c12 (racemic) [Example 109, rac-7-Methoxy-4-methyl-1H-indole-5-carboxylic acid [2-(2-methyl-pyrimidin-5-yl)-2-morpholin-4-yl-ethyl]-amide]
